Assay results reported in patent publication US20240408064A1, “RAS INHIBITORS, COMPOSITIONS AND METHODS OF USE THEREOF” (GENETOLEAD INC., priority 2021, published 2024).
Where “and” joins values, the source holds several entries; their conditions need not be identical. Equal entries are not always repeated.

Legend:
HRas^G12V [1] = molecular target: T1, HRas^G12V (Homo sapiens (Human), UniProt P01112, G12V); assay: 19F DLB (ligand-observed 19F NMR) score; format: binding; design: scale not given here
Description: (§1) All NMR experiments were collected using 3 mm NMR tubes on a 600 MHz Bruker Avance III spectrometer equipped with a QCI helium cryoprobe and a SampleJet sample changer. The buffer used for NMR experiments was 25 mM sodium phosphate pH 7.4, 150 mM NaCl, 5 mM MgCl2, 1 mM TCEP-d16, 10% D2O. Data were processed using Bruker TopSpin.
(§2) Since the fragment library was curated using phosphate buffer, 25 mM sodium phosphate pH 7.4, 150 mM NaCl, 5 mM MgCl2, 1 mM TCEP-d16, 10% D2O Fresh TCEP was used for experiments. Screening was performed using ^1H-decoupled 1D ^19F experiment Bruker experiment (zgfhigqn.2) with 64 scans and a relaxation delay of 5 seconds. 50 μM HRas^G12V and 240 μM of each fragment in pools (mixtures) were used.
Hit confirmation was performed using the same ^19F experiment as the screen. Ligand-observed 1D ^1H, protein-observed 1D ^1H, ^1H T2-CPMG as well as Saturation Transfer Difference (STD) experiments were also run on the same samples. Ligand-observed 1D ^1H was run using the standard Bruker sequence with excitation sculpting (zgesgp) with a relaxation delay of 10 seconds and 16 scans per spectrum. Protein-observed 1D ^1H was performed using the same sequence with a relaxation delay of 1 second and 256 scans in order to increase the signal-to-noise of the protein resonances, while keeping the experimental time relatively short. The ^1H T2-CPMG experiment employed a modified version of the Bruker 1D ^1H zgesgp experiment with the addition of a CPMG pulse train after the first 90° excitation pulse. Total duration for each spin echo was fixed at 1 ms (τ=500 μs), while the number of echoes in the pulse train was varied according to the total time (T). The number of scans for each spectrum was 4 and eight delay times were run on each sample, ranging from 1 ms to 800 ms. […]

HRas^G12V [2] = molecular target: T1, HRas^G12V; assay: 19F T2-CPMG NMR score; format: binding
Description: as §1, §2
Hit confirmation was performed using the same ^19F experiment as the screen. Ligand-observed 1D ^1H, protein-observed 1D ^1H, ^1H T2-CPMG as well as Saturation Transfer Difference (STD) experiments were also run on the same samples. Ligand-observed 1D ^1H was run using the standard Bruker sequence with excitation sculpting (zgesgp) with a relaxation delay of 10 seconds and 16 scans per spectrum. Protein-observed 1D ^1H was performed using the same sequence with a relaxation delay of 1 second and 256 scans in order to increase the signal-to-noise of the protein resonances, while keeping the experimental time relatively short. The ^1H T2-CPMG experiment employed a modified version of the Bruker 1D ^1H zgesgp experiment with the addition of a CPMG pulse train after the first 90° excitation pulse. Total duration for each spin echo was fixed at 1 ms (τ=500 μs), while the number of echoes in the pulse train was varied according to the total time (T). The number of scans for each spectrum was 4 and eight delay times were run on each sample, ranging from 1 ms to 800 ms.
Because of its power to probe the intrinsically weak interactions (Kd) between targets and low-molecular weight fragments, NMR fragment-based lead discovery (FBLD) is a very useful biophysical method in early stage drug discovery, especially for challenging target proteins; including those with shallow binding pockets. Since FBLD screens are performed using low-molecular weight compounds (fragments) with lower structural complexity, the same chemical space can be covered using a smaller number of drug-like fragments versus use of large libraries of higher-molecular weight lead-like compounds as in high throughput screening (HTS) campaigns. Therefore, FBLD has a much higher hit rate than HTS using only several hundred to several thousand compounds in comparison with approximately 1 million compounds for HTS. Also, the small size of the compounds screened in FBLD means a better chance to fully match the interactions with small or transient pockets within the target protein, where these less tractable pockets cannot be accessed with standard classical HTS methods. […] We expect this methodology to be more advantageous than classical HTS methods for expediting the time from hit to lead (H2L) and allows for rapid access to high quality leads with lower attrition rates in subsequent lead optimization (LO) campaigns toward pre-clinical candidate selection. FBLD screening by NMR involves a “consensus binding” approach where several distinct NMR experiments (DLB, STD, CPMG) are applied along with a free-state aggregation detection method (T2-CPMG) to rank the compounds for their affinity to the receptor (HRAS in this case) whilst simultaneously monitoring the solution behavior and critical quality attributes of each compound. The latter helps to eliminate artifact binders which are highly problematic. We performed a fluorine screen involving 461 compounds that were derived from a highly curated fragment library. Moreover, two-dimensional ^15N HSQC NMR was also used to validate ligand-binding sites on the target protein. […]

T1 sequence (P01112 1-166 G12V): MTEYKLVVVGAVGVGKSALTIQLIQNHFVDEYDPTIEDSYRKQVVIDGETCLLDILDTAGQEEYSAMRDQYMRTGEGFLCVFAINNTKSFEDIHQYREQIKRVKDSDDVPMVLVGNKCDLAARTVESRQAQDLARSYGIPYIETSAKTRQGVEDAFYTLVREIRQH

Row | SMILES | 19F DLB Score (HRas^G12V [1]) | 19F T2-CPMG Score (HRas^G12V [2])
1 | COc1ccc(C(CC(=O)O)c2c[nH]c3cc(F)ccc23)cc1 (stereo not drawn) [Compound 11057] | Non conclusive | –
2 | COC(C)C1CN(C(=O)Cc2c[nH]c3cc(F)ccc23)C1 (stereo not drawn) [Compound 10124, 2-(6-fluoro-1H-indol-3-yl)-1-(3-(1-methoxyethyl)azetidin-1-yl)ethan-1-one] | 1.82 | 12.49
3 | O=C(O)CC(c1cccc(F)c1)c1c[nH]c2cc(F)ccc12 (stereo not drawn) [Compound 11059] | Non conclusive | –
4 | O=C(C1CCNCC1)N1CCC(c2c[nH]c3cc(F)ccc23)CC1 [Compound 11047] | 2.79 | 22.81
5 | CC(=O)Nc1cccc(C(=O)N2CCC(c3c[nH]c4cc(F)ccc34)C2)c1 (stereo not drawn) [Compound 11023] | 3.07 | 16.39
6 | O=C(O)[C@H]1CCCCN1C(=O)Cc1c[nH]c2cc(F)ccc12 [Compound 10125] | 1.56 | 10.15
7 | COCC1CN(C(=O)Cc2c[nH]c3cc(F)ccc23)C1 [Compound 10075] | 1.77 | 7.09
8 | COc1cccc(NC(=O)Cc2c[nH]c3cc(F)ccc23)c1 [Compound 10030] | 3.05 | 18.47
9 | O=C(C1CCNC1)N1CCC(c2c[nH]c3cc(F)ccc23)C1 (stereo not drawn) [Compound 11036] | 1.76 | 19.33
10 | CC1CN(C(=O)C(CC(=O)O)c2c[nH]c3cc(F)ccc23)C1 (stereo not drawn) [Compound 11034] | 1.7 | 39.41
11 | O=C(C1CCNCC1)N1CCC(c2c[nH]c3cc(F)ccc23)C1 (stereo not drawn) [Compound 11038] | 2.37 | –
12 | CN(C)Cc1ccc(NC(=O)C(C#N)c2c[nH]c3cc(F)ccc23)cc1 (stereo not drawn) [Compound 11030] | 2.9 | 21.82
13 | CC(=O)N1CCC(C(=O)N2CCC(c3c[nH]c4cc(F)ccc34)CC2)CC1 [Compound 11029] | 1.93 | 10.24
14 | O=C(Cc1c[nH]c2cc(F)ccc12)N1CCO[C@H](CO)C1 [Compound 10148] | 1.87 | 12.46
15 | O=C(Cc1c[nH]c2cc(F)ccc12)Nc1ccc2[nH]ccc2c1 [Compound 10042] | 2.72 | 37.91
16 | CN(C)CCOC1CN(C(=O)Cc2c[nH]c3cc(F)ccc23)C1 [compound 10110] | 2.87 | 25.25
17 | CCOC(=O)C1CCN(C(=O)Cc2c[nH]c3cc(F)ccc23)CC1 [Compound 10132] | 2.01 | 13.29
18 | O=C(C1CC1)C1CN(C(=O)Cc2c[nH]c3cc(F)ccc23)C1 [Compound 10115, 1-(3-(cyclopropanecarbonyl)azetidin-1-yl)-2-(6-fluoro-1H-indol-3-yl)ethan-1-one] | 1.89 | 12.42
19 | CCOC(=O)CC1CCN(C(=O)Cc2c[nH]c3cc(F)ccc23)CC1 [Compound 10130] | 2.09 | 12.1
20 | O=C(Cc1c[nH]c2cc(F)ccc12)Nc1cccnc1 [Compound 10058] | 3.07 | 21.6
21 | COCC1(C)CN(C(=O)Cc2c[nH]c3cc(F)ccc23)C1 [Compound 10134, 2-(6-fluoro-1H-indol-3-yl)-1-(3-(methoxymethyl)-3-methylazetidin-1-yl)ethan-1-one] | 2.1 | 13.32

Row | SMILES | 19F DLB Score (HRas^G12V [1]) | 19F T2-CPMG Score (HRas^G12V [2])
22 | Fc1ccc2c(C3CCNCC3)c[nH]c2c1 [Compound 11012] | 2.58 | 13.63
23 | O=C(O)C(NCc1ccccc1)c1c[nH]c2cc(F)ccc12 (stereo not drawn) [Compound 11060] | Non conclusive | –
24 | N#CC(C(=O)N[C@@H](Cc1ccc(O)cc1)C(=O)O)c1c[nH]c2cc(F)ccc12 (stereo partly drawn) [Compound 11031] | 1.97 | 38.39
25 | CC(C)(C)OC(=O)N1CCC(C(=O)N2CCC(c3c[nH]c4cc(F)ccc34)CC2)C1 (stereo not drawn) [Compound 11017] | 1.86 | 16.89
26 | O=C(O)CC(c1ccccc1F)c1c[nH]c2cc(F)ccc12 (stereo not drawn) [Compound 11044] | 2.77 | 16.24
27 | COC1CN(C(=O)Cc2c[nH]c3cc(F)ccc23)C1 [Compound 10081] | 2.15 | 15.91
28 | O=C(c1ccccc1)N1CCC(c2c[nH]c3cc(F)ccc23)C1 (stereo not drawn) [Compound 11021] | 3.35 | 39.09
29 | O=C(O)CCc1c[nH]c2cc(F)ccc12 [Compound 11050] | Non conclusive | –
30 | O=C(C1CCCNC1)N1CCC(c2c[nH]c3cc(F)ccc23)C1 (stereo not drawn) [Compound 11037] | 2.12 | 16.77
31 | O=C(O)C(NCc1cncc(Br)c1)c1c[nH]c2cc(F)ccc12 (stereo not drawn) [Compound 11061] | Non conclusive | –
32 | O=C(O)C(NCc1ccc(O)cc1)c1c[nH]c2cc(F)ccc12 (stereo not drawn) [Compound 11063] | Non conclusive | –
33 | O=C(C1CCCNC1)N1CCC(c2c[nH]c3cc(F)ccc23)CC1 (stereo not drawn) [Compound 11048] | 3.29 | –
34 | CC(=O)Nc1cccc(NC(=O)C(C#N)c2c[nH]c3cc(F)ccc23)c1 (stereo not drawn) [Compound 11035] | 5.34 | –
35 | O=C(C1CCNC1)N1CCC(c2c[nH]c3cc(F)ccc23)CC1 (stereo not drawn) [Compound 11046] | 3.58 | –
36 | O=C(O)C(c1c[nH]c2cc(F)ccc12)N1CCC(O)CC1 (stereo not drawn) [Compound 11062] | Non conclusive | –
37 | O=C1C[C@@H](c2c[nH]c3cc(F)ccc23)C(=O)N1 (single isomer, unassigned) [Compound 11040] | 3.49 | –
38 | CN(C)Cc1cc2ccc(F)cc2[nH]1 [Compound 11049] | Non conclusive | –
39 | O=C(Cc1c[nH]c2cc(F)ccc12)N1CCOCC1 [Compound 10016] | 4.63 and 2.64 | –
40 | O=C(O)CC(c1ccc(F)cc1F)c1c[nH]c2cc(F)ccc12 (stereo not drawn) [Compound 11056] | Non conclusive | –
41 | CC1CN(C(=O)C(C#N)c2c[nH]c3cc(F)ccc23)C1 (stereo not drawn) [Compound 11033] | 6.06 | –
